Assay results published in patent US12643912B2, “Macrocyclic compounds, a process for their preparation and pharmaceutical compositions containing them” (LES LABORATOIRES SERVIER, priority 2020, dated 2026).

test system: Nrf2 (Keap1-NRF2 nuclear translocation); test: U2OS translocation assay (PathHunter U2OS Keap1-NRF2 Nuclear Translocation Cell Line); assay type: cell-based; conditions: Homo sapiens, U2OS, 3 h, read-out: CELLULAR U2OS EC50 (nM), U2OS Keap1-NRF2 nuclear translocation cells, 3 h incubation, luminescence, normalized between 1% DMSO and 10 μM andrographolide
Experimental: EXAMPLE 84: U2OS—TRANSLOCATION ASSAY
U2OS cell have been stably transduced using MMLV-derived retroviral vector, to overexpress Nrf2-Enzyme Donor fusion protein, and Acceptor Enzyme in the nucleus (PathHunter® U2OS Keap1-NRF2 Nuclear Translocation Cell Line, Ref.93-0821C3, DiscoverX).
PathHunter U2OS cells were grown in Minimum Essential Medium (MEM) (Ref.30-2003, ATCC), 10% FBS (Ref.P30-193306, PanBiotech), 500 μg/ml Geneticine, 250 μg/ml hygromycine, 0.25 μg/ml puromycine (10131-027, 10687-010 and Ref.A1113802 respectively, Life Technologies).
The night before experiment, cells were harvested using Tryple Xpress (Ref.126905, Bibco) for 5 min at 37° C., resuspended in Opti-MEM™ (Ref.31985-047, Gibco), 1% FBS (Ref.P30-193306, PanBiotech) and then plated into 384 wells plates (Ref.6007680, Perkin Elmer) at the density of 7 500 cells/well in 20 μl. Cell are stored over night at 37° C., 5% CO2 until used. Compounds in 100% DMSO (0.315 μl/well) were resuspended in 20 μl MEM, 1% FBS, 3.4% DMSO. Compounds and andrographolide (10 μM final concentration; Ref.365645-500MG, Aldrich)) as positive control, were dispensed on cell, 5 μl /well, and then incubated for 3 h at 37° C. and 5% CO2. After incubation, Path hunter reagents were dispensed on cells (12 μl /well, Ref.93-0001, DiscoverX) and incubated for 60 min at room temperature in the dark.
Then, luminescence signal was measured using multimodal reader (Pherastar, BMG Labtech). Data were normalized between 1% DMSO (basal signal) and 10 μM andrographolide (positive signal) and analyzed using Activity Base software.

| SMILES | EC50 [nM] |
| --- | --- |
| Cc1ccc2cc1CN1Cc3cc(ccc3OS1(=O)=O)CNC(=O)CCn1nnc3c(C)c(ccc31)C2CC(=O)O (racemic) [Example 69, [4,31-Dimethyl-19,27,27-trioxo-26-oxa-27λ^6-thia-1,14,15,16,20-pentaazahexacyclo[20.5.3.1^3,70.1^9,130.0^12,160.0^25,29]dotriaconta-3(32),4,6,9(31),10,12,14,22,24,29-decaen-8-yl]acetic acid] | > 3160 |
| Cc1ccc2cc1CN1Cc3cc(ccc3OS1(=O)=O)OCCCCn1nnc3c(C)c(cc(-c4ccccc4)c31)[C@@H]2CC(=O)O (single isomer, unassigned) [Example 49] | 1620 |
| COc1ccc2cc1[C@H](C)N1Cc3cc(ccc3OS1(=O)=O)OCCCCn1nnc3c(C)c(ccc31)[C@H]2CC(=O)O [Example 28d, [(2S,8S)-4-methoxy-2,31-dimethyl-27,27-dioxo-21,26-dioxa-27λ^6-thia-1,14,15,16-tetraazahexacyclo[20.5.3.1^3,70.1^9,130.0^12,160.0^25,29]dotriaconta-3(32),4,6,9(31),10,12,14,22,24,29-decaen-8-yl]acetic acid] | 879 |
| COc1ccc2cc1[C@H](C)N1Cc3cc(ccc3OS1(=O)=O)OCCCCn1nnc3c(C)c(ccc31)[C@@H]2CC(=O)O [Example 28c, [(2S,8R)-4-Methoxy-2,31-dimethyl-27,27-dioxo-21,26-dioxa-27λ^6-thia-1,14,15,16-tetraazahexacyclo[20.5.3.1^3,70.1^9,130.0^12,160.0^25,29]dotriaconta-3(32),4,6,9(31),10,12,14,22,24,29-decaen-8-yl]acetic acid] | > 3160 |
| COc1ccc2cc1[C@@H](C)N1Cc3cc(ccc3OS1(=O)=O)OCCCCCn1nnc3c(C)c(ccc31)[C@@H]2CC(=O)O [Example 31d, [(2R,8R)-4-methoxy-2,32-dimethyl-28,28-dioxo-22,27-dioxa-28λ^6-thia-1,14,15,16-tetraazahexacyclo[21.5.3.1^3,70.1^9,130.0^12,160.0^26,30]tritriaconta-3(33),4,6,9(32),10,12,14,23,25,30-decaen-8-yl]acetic acid] | 326 |
| COc1cc2cc(c1Cl)CN1Cc3cc(ccc3OS1(=O)=O)OCCCCn1nnc3c(C)c(ccc31)C2CC(=O)O (stereo not drawn) [Example 38a, [4-Chloro-5-methoxy-31-methyl-27,27-dioxo-21,26-dioxa-27λ^6-thia-1,14,15,16-tetraazahexacyclo[20.5.3.1^3,70.1^9,130.0^12,160.0^25,29]dotriaconta-3(32),4,6,9(31),10,12,14,22,24,29-decaen-8-yl]acetic acid] | 2080 |
| Cc1ccc2cc1CN1Cc3cc(ccc3OS1(=O)=O)OCc1ccccc1CCn1nnc3c(C)c(ccc31)C2CC(=O)O (stereo not drawn) [Example 62b, [4,36-Dimethyl-32,32-dioxo-26,31-dioxa-32λ^6-thia-1,14,15,16-tetraazaheptacyclo[25.5.3.1^3,70.1^9,130.0^12,160.0^19,240.0^30,34]heptatriaconta-3(37),4,6,9(36),10,12,14,19,21,23,27,29,34-tridecaen-8-yl]acetic acid] | > 3160 |
| COc1ccc2cc1[C@H](C)N1Cc3cc(ccc3OS1(=O)=O)OCCCCCn1nnc3c(C)c(ccc31)[C@@H]2CC(=O)O [Example 31c, [(2S,8R)-4-methoxy-2,32-dimethyl-28,28-dioxo-22,27-dioxa-28λ^6-thia-1,14,15,16-tetraazahexacyclo[21.5.3.1^3,70.1^9,130.0^12,160.0^26,30]tritriaconta-3(33),4,6,9(32),10,12,14,23,25,30-decaen-8-yl]acetic acid] | > 3160 |

same assay, conditions: read-out: CELLULAR U2OS EC50; U2OS Keap1-NRF2 nuclear translocation cells, 3 h incubation, luminescence, normalized between 1% DMSO and 10 μM andrographolide

| SMILES | EC50 [nM] |
| --- | --- |
| Cc1ccc2cc1CN1Cc3c(ccc(c3Cl)OCCOCCn3nnc4c(C)c(ccc43)C2CC(=O)O)OS1(=O)=O (single isomer, unassigned) [Example 76a, [31-Chloro-4,32-dimethyl-28,28-dioxo-19,22,27-trioxa-28λ^6-thia-1,14,15,16-tetraazahexacyclo[21.5.3.1^3,70.1^9,130.0^12,160.0^26,30]tritriaconta-3(33),4,6,9(32),10,12,14,23,25,30-decaen-8-yl]acetic acid] | 7.5 |
| Cc1ccc2cc1CN1Cc3cc(ccc3OS1(=O)=O)Oc1ccccc1NCCn1nnc3c(C)c(ccc31)C2CC(=O)O (single isomer, unassigned) [Example 70a, [4,36-Dimethyl-32,32-dioxo-26,31-dioxa-32λ^6-thia-1,14,15,16,19-pentaazaheptacyclo[25.5.3.1^3,70.1^9,130.0^12,160.0^20,250.0^30,34]heptatriaconta-3(37),4,6,9(36),10,12,14,20,22,24,27,29,34-tridecaen-8-yl]acetic acid] | 306 |
| Cc1ccc2cc1CN1Cc3c(ccc(c3Cl)OCCOCCn3nnc4c(C)c(ccc43)C2CC(=O)O)OS1(=O)=O (single isomer, unassigned) [Example 76b, [31-Chloro-4,32-dimethyl-28,28-dioxo-19,22,27-trioxa-28λ^6-thia-1,14,15,16-tetraazahexacyclo[21.5.3.1^3,70.1^9,130.0^12,160.0^26,30]tritriaconta-3(33),4,6,9(32),10,12,14,23,25,30-decaen-8-yl]acetic acid] | 26.2 |
| Cc1ccc2cc1CN1Cc3cc(ccc3OS1(=O)=O)OCCCCn1nnc3c(C)c(ccc31)C2C(C)(C)C(=O)Nc1cncnc1 (single isomer, unassigned) [Example 81a, 2-[4,31-Dimethyl-27,27-dioxido-21,26-dioxa-27-thia-1,14,15,16-tetraazahexacyclo[20.5.3.1^3,70.1^9,130.0^12,160.0^25,29]dotriaconta-3(32),4,6,9(31),10,12,14,22,24,29-decaen-8-yl]-2-methyl-N-(pyrimidin-5-yl)propanamide] | 275 |
| Cc1ccc2cc1CN1Cc3cc(ccc3OS1(=O)=O)OCCCCn1nnc3c(C)c(ccc31)C2C(C)(C)C(=O)Nc1cccnc1 (single isomer, unassigned) [Example 82b, 2-[4,31-Dimethyl-27,27-dioxo-21,26-dioxa-27λ^6-thia-1,14,15,16-tetraazahexacyclo[20.5.3.1^3,70.1^9,130.0^12,160.0^25,29]dotriaconta-3(32),4,6,9(31),10,12,14,22,24,29-decaen-8-yl]-2-methyl-N-(pyridin-3-yl)propanamide] | > 3160 |
| Cc1ccc2cc1CN1Cc3cc(ccc3OS1(=O)=O)OCCCCn1nnc3c(C)c(ccc31)C2C(C)(C)C(=O)Nc1cncnc1 (single isomer, unassigned) [Example 81b, 2-[4,31-Dimethyl-27,27-dioxido-21,26-dioxa-27-thia-1,14,15,16-tetraazahexacyclo[20.5.3.1^3,70.1^9,130.0^12,160.0^25,29]dotriaconta-3(32),4,6,9(31),10,12,14,22,24,29-decaen-8-yl]-2-methyl-N-(pyrimidin-5-yl)propanamide] | > 3160 |
| Cc1ccc2cc1CN1Cc3cc(ccc3OS1(=O)=O)OCCOCCn1nnc3c(C)c(ccc31)C2CC(=O)O (single isomer, unassigned) [Example 78a, [4,32-Dimethyl-28,28-dioxo-19,22,27-trioxa-28λ^6-thia-1,14,15,16-tetraazahexacyclo[21.5.3.1^3,70.1^9,130.0^12,160.0^26,30]tritriaconta-3(33),4,6,9(32),10,12,14,23,25,30-decaen-8-yl]acetic acid] | 69 |
